We go through twelve molecules from ChEMBL document CHEMBL3045836, “Synthesis characterization and biological evaluation of some alkoxyphthalimide derivatives of 3-(4-substituted phenyl)-6,6-diphenyl-3,3a-dihydro-2H-imidazo[2,1-b]pyrazolo[3,4-d][1,3]thiazol-7(6H)-one” (2011).

Common to all, as to format: functional
Holding throughout (conditions): read-out: IZ

One assay relates to Bacillus subtilis. Put plainly: Antibacterial activity against Bacillus subtilis at 500 ppm.
The next assay has as its system Escherichia coli. Briefly: Antibacterial activity against Escherichia coli at 500 ppm.
The subject of a further assay is Aspergillus fumigatus. Briefly: Antifungal activity against Aspergillus fumigatus at 500 ppm.
The subject of another assay is Candida albicans. Briefly: Antifungal activity against Candida albicans at 500 ppm.
In a further assay the test system is Pseudomonas aeruginosa. Put plainly: Antibacterial activity against Pseudomonas aeruginosa at 500 ppm.
The test system of the next assay is Proteus mirabilis. Briefly: Antibacterial activity against Proteus mirabilis at 500 ppm.

As for `O=C1c2ccccc2C(=O)N1OCCNc1nc(-c2ccccc2)c2c(n1)N1C(=O)C(c3ccccc3)(c3ccccc3)N=C1S2`, the zone of inhibition at 500 ppm in the assay on Bacillus subtilis is 7 mm; with Escherichia coli, 18 mm; in the assay with Aspergillus fumigatus, 2 mm; in the assay with Candida albicans, 26 mm; in the assay on Pseudomonas aeruginosa, 14 mm; with Proteus mirabilis, 10 mm.
Take `O=C(O)c1cn(C2CC2)c2cc(N3CCNCC3)c(F)cc2c1=O` [CIPROFLOXACIN]: the zone of inhibition at 500 ppm in the assay with Bacillus subtilis turned out to be 17 mm; in the assay on Escherichia coli, 16 mm; in the assay on Pseudomonas aeruginosa it was 18 mm; in the assay on Proteus mirabilis it was 16 mm.
For the molecule `O=C1c2ccccc2C(=O)N1OCCNc1nc(-c2ccc(F)cc2)c2c(n1)N1C(=O)C(c3ccccc3)(c3ccccc3)N=C1S2`, the zone of inhibition at 500 ppm with Bacillus subtilis amounted to 13 mm; in the assay on Escherichia coli, 13 mm; with Aspergillus fumigatus it was 4 mm; with Candida albicans, 23 mm; with Pseudomonas aeruginosa, 21 mm; in the assay on Proteus mirabilis, 8 mm.
Consider `COc1ccc(-c2nc(NCCON3C(=O)c4ccccc4C3=O)nc3c2SC2=NC(c4ccccc4)(c4ccccc4)C(=O)N23)cc1`, for which the zone of inhibition at 500 ppm in the assay on Bacillus subtilis was 12 mm; with Escherichia coli, 11 mm; in the assay on Aspergillus fumigatus, 5 mm; with Candida albicans, 21 mm; in the assay on Pseudomonas aeruginosa it was 12 mm; in the assay on Proteus mirabilis it was 6 mm.
In the case of `CN(C)c1ccc(-c2nc(NCCON3C(=O)c4ccccc4C3=O)nc3c2SC2=NC(c4ccccc4)(c4ccccc4)C(=O)N23)cc1`, the zone of inhibition at 500 ppm amounted to 10 mm with Bacillus subtilis; 15 mm with Escherichia coli; 8 mm in the assay on Aspergillus fumigatus; 19 mm in the assay with Candida albicans; 11 mm with Pseudomonas aeruginosa; 7 mm with Proteus mirabilis.
As to `O=C1c2ccccc2C(=O)N1OCCN1N=C2C(SC3=NC(c4ccccc4)(c4ccccc4)C(=O)N32)C1c1ccc(Cl)cc1` (stereo unspecified), the zone of inhibition at 500 ppm in the assay with Bacillus subtilis was found to be 4 mm; in the assay with Escherichia coli, 11 mm; in the assay with Aspergillus fumigatus, 6 mm; with Candida albicans, 20 mm; in the assay with Pseudomonas aeruginosa, 9 mm; with Proteus mirabilis, 5 mm.
On to `O=C1c2ccccc2C(=O)N1OCCN1N=C2C(SC3=NC(c4ccccc4)(c4ccccc4)C(=O)N32)C1c1ccc(F)cc1` (stereo unspecified), for which the zone of inhibition at 500 ppm in the assay on Bacillus subtilis was determined as 6 mm; with Escherichia coli, 12 mm; in the assay with Aspergillus fumigatus, 5 mm; in the assay with Candida albicans, 20 mm; with Pseudomonas aeruginosa, 11 mm; in the assay on Proteus mirabilis, 8 mm.
On to `COc1ccc(C2C3SC4=NC(c5ccccc5)(c5ccccc5)C(=O)N4C3=NN2CCON2C(=O)c3ccccc3C2=O)cc1` (stereo unspecified), for which the zone of inhibition at 500 ppm came out at 11 mm in the assay on Bacillus subtilis; 9 mm with Escherichia coli; 3 mm with Aspergillus fumigatus; 18 mm with Candida albicans; 17 mm with Pseudomonas aeruginosa; 6 mm in the assay with Proteus mirabilis.
Turning to `O=C1c2ccccc2C(=O)N1OCCNc1nc(-c2ccc(Cl)cc2)c2c(n1)N1C(=O)C(c3ccccc3)(c3ccccc3)N=C1S2`, the zone of inhibition at 500 ppm worked out at 5 mm with Bacillus subtilis; 13 mm in the assay on Escherichia coli; 6 mm in the assay on Aspergillus fumigatus; 11 mm with Candida albicans; 13 mm in the assay with Pseudomonas aeruginosa; 4 mm in the assay with Proteus mirabilis.
With `C[C@@H]1[C@H](O)[C@@H](C)/C=C/C=C/C=C/C=C/C=C/C=C/C=C/[C@H](O[C@@H]2O[C@H](C)[C@@H](O)[C@H](N)[C@@H]2O)C[C@@H]2O[C@](O)(C[C@@H](O)C[C@@H](O)[C@H](O)CC[C@@H](O)C[C@@H](O)CC(=O)O[C@H]1C)C[C@H](O)[C@H]2C(=O)O` [AMPHOTERICIN B], the values for the zone of inhibition at 500 ppm in the assay on Aspergillus fumigatus and in the assay with Candida albicans were 10 mm and 17 mm, respectively.
`CN(C)c1ccc(C2C3SC4=NC(c5ccccc5)(c5ccccc5)C(=O)N4C3=NN2CCON2C(=O)c3ccccc3C2=O)cc1` (stereo unspecified): the zone of inhibition at 500 ppm was determined as 7 mm in the assay with Bacillus subtilis; 10 mm in the assay on Escherichia coli; 2 mm with Aspergillus fumigatus; 17 mm in the assay on Candida albicans; 10 mm in the assay on Pseudomonas aeruginosa; 5 mm in the assay with Proteus mirabilis.
On to `O=C1c2ccccc2C(=O)N1OCCN1N=C2C(SC3=NC(c4ccccc4)(c4ccccc4)C(=O)N32)C1c1ccccc1` (stereo unspecified), for which the zone of inhibition at 500 ppm in the assay with Bacillus subtilis was 9 mm; in the assay on Escherichia coli, 12 mm; in the assay with Aspergillus fumigatus it was 4 mm; in the assay with Candida albicans, 19 mm; in the assay with Pseudomonas aeruginosa, 14 mm; with Proteus mirabilis, 3 mm.
